Converted amounts (≈) assume the structure as drawn. Read-outs that look alike come from different tables or passages of the source.
How the values were obtained:
Experiment in all cases: MIC, standard agar inclusion method
Type in all cases: cell-based
S. aureus HH127 = settings: Staphylococcus aureus
S. aureus SK23390 = settings: Staphylococcus aureus
S. aureus Villaluz = settings: Staphylococcus aureus
Strep. faecalis HH34358 = settings: Enterococcus faecalis
E. coli SK12140 = settings: Escherichia coli
E. coli HH33779 = settings: Escherichia coli
Kleb. pneumo. SK4200 = tested on: Kleb. pneumo. SK4200
Kleb. pneumo. SK1200 = tested on: Kleb. pneumo. SK1200
[1] = tested on: Salmonella paratuphi ATCC12176
[2] = tested on: Shegella paradysenteriae HH117
Pseudo aeruginosa HH63 = tested on: Pseudo aeruginosa HH63
Serratia marc. ATCC13880 = tested on: Serratia marc. ATCC13880
Proteus morgani 179 = tested on: Proteus morgani 179
Entero. aerogenes 13048 = settings: Klebsiella aerogenes
Entero. cloacae HH31254 = settings: Enterobacter cloacae
[3] = Entero. aerogenes 13048, agar inclusion, read-out: MIC
[4] = Entero. cloacae HH31254, agar inclusion, read-out: MIC

Structure (SMILES) | MIC (S. aureus HH127) | MIC (S. aureus SK23390) | MIC (S. aureus Villaluz) | MIC (Strep. faecalis HH34358) | MIC (E. coli SK12140) | MIC (E. coli HH33779) | MIC (Kleb. pneumo. SK4200) | MIC (Kleb. pneumo. SK1200) | MIC [1] | MIC [2] | MIC (Pseudo aeruginosa HH63) | MIC (Serratia marc. ATCC13880) | MIC (Proteus morgani 179) | MIC (Entero. aerogenes 13048; [3]) | MIC (Entero. cloacae HH31254; [4]) | MIC (Entero. aerogenes 13048; 13048) | MIC (Proteus morgani 179; Proteus morgani 179, agar inclusion, read-out: MIC) | MIC (Entero. cloacae HH31254; HH31254)
CSSCC(=O)NC1C(=O)N2C(C(=O)O)=C(COC(C)=O)CSC12 (stereo not drawn) [D, 7-(methyldithioacetamido)-cephalosporanic acid] | 0.2 µg/mL (≈ 0.51 µM) | 0.2 µg/mL (≈ 0.51 µM) | 3.1 µg/mL (≈ 7.9 µM) | 12.5 µg/mL (≈ 31.8 µM) | 6.3 µg/mL (≈ 16.1 µM) | 12.5 µg/mL (≈ 31.8 µM) | 3.1 µg/mL (≈ 7.9 µM) | 3.1 µg/mL (≈ 7.9 µM) | 6.3 µg/mL (≈ 16.1 µM) | 1.6 µg/mL (≈ 4.08 µM) | > 200 µg/mL | > 200 µg/mL | > 200 µg/mL | 25 µg/mL (≈ 63.7 µM) | 25 µg/mL (≈ 63.7 µM) | – | – | –
CSSCC(=O)NC1C(=O)N2C(C(=O)O)=C(CSc3nnnn3C)CSC12 (stereo not drawn) [A, 7-methyldithioacetamido-3-(1-methyltetrazol-5-yl-thiomethyl)-3-cephem-4-carboxylic acid] | 0.4 µg/mL (≈ 0.892 µM) | 0.4 µg/mL (≈ 0.892 µM) | 6.3 µg/mL (≈ 14 µM) | 12.5 µg/mL (≈ 27.9 µM) | 3.1 µg/mL (≈ 6.91 µM) | 6.3 µg/mL (≈ 14 µM) | 3.1 µg/mL (≈ 6.91 µM) | 0.8 µg/mL (≈ 1.78 µM) | 0.8 µg/mL (≈ 1.78 µM) | 0.8 µg/mL (≈ 1.78 µM) | > 200 µg/mL | > 200 µg/mL | > 200 µg/mL | 3.1 µg/mL (≈ 6.91 µM) | 1.6 µg/mL (≈ 3.57 µM) | – | – | –
Cc1nnc(SCC2=C(C(=O)O)N3C(=O)[C@@H](NC(=O)Cn4cnnn4)[C@H]3SC2)s1 [Cefazolin, reference compound] | 0.4 µg/mL (≈ 0.88 µM) | 0.4 µg/mL (≈ 0.88 µM) | 25 µg/mL (≈ 55 µM) | 6.3 µg/mL (≈ 13.9 µM) | 1.6 µg/mL (≈ 3.52 µM) | 3.1 µg/mL (≈ 6.82 µM) | 3.1 µg/mL (≈ 6.82 µM) | – | 1.6 µg/mL (≈ 3.52 µM) | 0.8 µg/mL (≈ 1.76 µM) | > 200 µg/mL | > 200 µg/mL | > 200 µg/mL | – | – | 1.6 µg/mL (≈ 3.52 µM) | – | –
Cn1nnnc1SCC1=C(C(=O)O)N2C(=O)C(NC(=O)CSSC(F)(F)F)C2SC1 (stereo not drawn) [C] | 3.1 µg/mL (≈ 6.17 µM) | 3.1 µg/mL (≈ 6.17 µM) | 6.3 µg/mL (≈ 12.5 µM) | 50 µg/mL (≈ 99.5 µM) | 12.5 µg/mL (≈ 24.9 µM) | 25 µg/mL (≈ 49.7 µM) | 6.3 µg/mL (≈ 12.5 µM) | 3.1 µg/mL (≈ 6.17 µM) | 6.3 µg/mL (≈ 12.5 µM) | 3.1 µg/mL (≈ 6.17 µM) | > 100 µg/mL | > 100 µg/mL | – | 100 µg/mL (≈ 199 µM) | 12.5 µg/mL (≈ 24.9 µM) | – | > 100 µg/mL | –
Cn1nnnc1SCC1=C(C(=O)O)N2C(=O)C(NC(=O)CSSC(Cl)(Cl)Cl)C2SC1 (stereo not drawn) [B, 7-(trichloromethyldithioacetamido)-3-(1-methyltetrazol-5-ylthiomethyl)-3-cephem-4-carboxylic acid] | 3.1 µg/mL (≈ 5.62 µM) | 3.1 µg/mL (≈ 5.62 µM) | 50 µg/mL (≈ 90.6 µM) | 50 µg/mL (≈ 90.6 µM) | 12.5 µg/mL (≈ 22.6 µM) | 100 µg/mL (≈ 181 µM) | – | 6.3 µg/mL (≈ 11.4 µM) | 6.3 µg/mL (≈ 11.4 µM) | 12.5 µg/mL (≈ 22.6 µM) | > 200 µg/mL | > 200 µg/mL | > 200 µg/mL | 100 µg/mL (≈ 181 µM) | – | – | – | 12.5 µg/mL (≈ 22.6 µM)
